Here are results for four compounds from patent US9161939B2, “Pyrrolo[2,3-d]pyrimidine compounds” (Zoetis LLC, priority 2008, dated 2015).

Molecules are shown by their SMILES. pIC50: −log10 of the molar value. A value given as a limit tells only on which side of the number the result lay.

For test [1], the system named is FETJ feline T-lymphoblast cell line. The test is described as follows: Cell Proliferation Inhibitory Assay, FETJ. The following applies: Felis catus; Feline FETj lymphoid line (IL-2 independent); MTS. It is filed as cell-based. How it is done: (§1) Feline Cell Lines The MYA-1 and FETJ are feline T-lymphoblast cell lines obtained from ATCC (Manassas, Va.). These cells were cultured in RPMI 1640 complete media supplemented with 10% FBS at 37° C. in a humidified incubator with 5% CO2.
(§2) Cells cultured in medium described above were plated in 96-well Costar plates (Corning) at a density of 1×10^3 cells/well (feline cell lines) or 2×10^5 cells/well (lymph node cells) and exposed to various concentrations of test compounds for up to 5 days at 37° C. in a humidified incubator with 5% CO2. Effects on proliferation were determined using the CellTiter 96® AQueous Non-Radioactive Cell Proliferation Assay (Promega) according to manufacturer's instructions. In general, proliferation was indirectly measured using a soluble tetrazolium salt (MTS) and an electron coupling agent. MTS bioreduction into a formazan product soluble in tissue culture medium was monitored by absorbance at 490 nm on a Spectramax plate reader using Softmax Pro 4.6 software (Molecular Devices).

Test [2] relates to MSU LN 8 De novo T-cell lymphoma lymph node cells. The test is described as follows: Cell Proliferation Inhibitory Assay, ex vivo canine lymphoma nodal tissue MSU LN 8. In kind it is cell-based. The following applies: Canis lupus familiaris, Canine MSU LN 8, De novo T-cell lymphoma. The protocol:
(§3) Malignant lymph nodes were excised by veterinary staff at Michigan State University (MSU) Veterinary College, placed into transport media (Advanced RPMI 1640 complete medium supplemented with 10% Fetal Bovine Serum (FBS), 100 U/mL penicillin, 100 ug/mL streptomycin and 0.25 ug/mL Amphotercin B (Invitrogen/Gibco®). Nodes were processed within 24 hours of removal by mincing into tiny pieces and passing through a tissue sieve. Cell suspensions were spun at 200×g, supernatant was removed, and the cell pellet was resuspended in NH4Cl for 10 minutes at room temperature. The cell suspension was pelleted by centrifugation; the NH4Cl was removed and washed once with Hanks Balanced Salt Solution (HBSS), followed by re-suspension in Proliferation Medium (Advanced RPMI complete, 1% FBS, […] 2-Mercaptoethanol, 100 U/mL penicillin, 100 ug/mL streptomycin and 0.25 ug/mL Amphotercin B). The cell suspension was then passed through a 100 μm nylon cell strainer (BD-Falcon) and counted using a hemacytometer. Cells were cultured in either Proliferation Medium alone, Proliferation Medium supplemented with 0.005% Pansorbin® (Heat inactivated, formalin-fixed Staphylococcus Aureus cells (SAC), Calbiochem), and 10 ng/mL canine IL-2 (R&D Systems), or Proliferation Medium supplemented with 125 ng/mL concavalin A (Sigma) and 125 ng/mL lipopolysaccarride (LPS; Calbiochem). […]

The test system of test [3] is MYA-1 feline T-lymphoblast cell line. Briefly: Cell Proliferation Inhibitory Assay, MYA-1. It is filed as cell-based. The conditions noted are these: Felis catus; Feline MYA-1 lymphoid line (IL-2 dependent); MTS. How it is done:
as §1, §2

The target in test [4] is Recombinant JAK-1 (GST-JAK-1 (852-1142)) (Homo sapiens (Human), UniProt P23458). Briefly: JAK Enzymatic Assay (peptide mobility shift), JAK-1. It is filed as biochemical. The following applies: ATP 40 micromolar, IRS-1 peptide, 240 minutes.
Recombinant JAK-1 (GST-JAK-1 (852-1142)), sequence (P23458 852-1142): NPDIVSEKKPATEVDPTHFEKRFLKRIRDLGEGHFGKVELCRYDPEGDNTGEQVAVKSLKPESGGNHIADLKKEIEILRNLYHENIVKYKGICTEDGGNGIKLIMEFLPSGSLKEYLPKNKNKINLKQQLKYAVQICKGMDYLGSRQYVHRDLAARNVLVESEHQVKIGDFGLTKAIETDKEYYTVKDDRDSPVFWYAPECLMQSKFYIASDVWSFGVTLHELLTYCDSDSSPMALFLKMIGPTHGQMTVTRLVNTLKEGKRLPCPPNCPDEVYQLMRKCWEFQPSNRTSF
Procedure: (§4) Materials: Recombinant JAK-2 (Catalog Number PV4210) and JAK-3 (Catalog Number PV3855) were purchased from (Invitrogen Corporation, Madison, Wis.). Recombinant JAK-1 (GST-JAK-1 (852-1142)) and Tyk-2 (GST-Tyk2 (870-1187, C1187S)) used in this study were expressed and purified at Pfizer Laboratories. Adenosine 5′-triphosphate (ATP) was obtained from Sigma Chemical Company, St. Louis, Mo. […] Coating Reagent 3 was purchased from (Caliper Life Sciences, Hopkinton, Mass.).
(§5) Reactions were carried out in a 384-well plate (Matrical MP-101) in a 10 microliter total volume. Reaction mixtures contained 20 mM HEPES, pH 7.4, 10 mM magnesium chloride, 0.01% bovine serum albumin (BSA), 0.0005% Tween-20, ATP (4 micromolar for JAK-2 and JAK-3, 40 micromolar for JAK-1 and 7 micromolar for Tyk-2)), 2% DMSO and 1 micromolar peptide substrate (JAKtide for JAK-2 and JAK-3 or IRS-1 peptide for JAK-1 and Tyk-2). Compounds were diluted serially in 100% dimethyl sulfoxide and tested in an 11 point dose response in duplicate or quadruplicate (200 nl of compound/DMSO was added per 10 microliter reaction). […] Data was analyzed using Hits Well Analyzer Software from (Caliper Life Sciences) to obtain the amount of product formed.
(§6) Data was then imported into an internal application where each data point was expressed as % inhibition based on uninhibited and no enzyme controls. […]
The subject of test [5] is MSU LN 10 Chemotherapy resistant B-cell lymphoma lymph node cells. Briefly: Cell Proliferation Inhibitory Assay, ex vivo canine lymphoma nodal tissue MSU LN 10. It is filed as cell-based. The conditions noted are these: Canis lupus familiaris; Canine MSU LN 10, Chemotherapy resistant B-cell lymphoma; LPS + ConA. How it is done:
as §3

A further test concerns the target Recombinant JAK-3 (Homo sapiens (Human), UniProt P52333). The test is described as follows: JAK Enzymatic Assay (peptide mobility shift), JAK-3. The conditions noted are these: ATP 4 micromolar, JAKtide, 90 minutes. In kind it is biochemical.
The test system of test [6] is MSU LN 11 De novo B-cell lymphoma lymph node cells. The test is described as follows: Cell Proliferation Inhibitory Assay, ex vivo canine lymphoma nodal tissue MSU LN 11. In kind it is cell-based. The conditions noted are these: Canis lupus familiaris; Canine MSU LN 11, De novo B-cell lymphoma; LPS + ConA. How it is done: as §3
For the next test, the target named is Recombinant JAK-2 (Homo sapiens (Human), UniProt O60674). The conditions noted are these: read-out: JAK-2 IC50; ATP 4 micromolar, JAKtide, 150 minutes.
Recombinant JAK-2, sequence (O60674 808-1132): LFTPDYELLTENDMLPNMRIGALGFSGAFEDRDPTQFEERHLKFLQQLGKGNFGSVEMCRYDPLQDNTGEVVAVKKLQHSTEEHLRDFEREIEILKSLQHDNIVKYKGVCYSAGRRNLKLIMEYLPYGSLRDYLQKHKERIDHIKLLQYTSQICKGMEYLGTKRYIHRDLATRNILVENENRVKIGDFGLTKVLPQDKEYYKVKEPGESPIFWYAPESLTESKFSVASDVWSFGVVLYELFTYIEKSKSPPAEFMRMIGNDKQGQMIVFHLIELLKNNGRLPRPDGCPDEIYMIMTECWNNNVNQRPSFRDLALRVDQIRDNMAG
Test [7] relates to MSU LN 9 De novo B-cell lymphoma lymph node cells. Briefly: Cell Proliferation Inhibitory Assay, ex vivo canine lymphoma nodal tissue MSU LN 9. In kind it is cell-based. The following applies: Canis lupus familiaris, Canine MSU LN 9, De novo B-cell lymphoma. The protocol:
as §3

Test [8] relates to T-cell proliferation in canine whole blood (ConA + canine IL-2). Briefly: Canine In Vitro T-Cell Proliferation Assay. In kind it is cell-based. The conditions noted are these: Canis lupus familiaris, tritiated thymidine. How it is done: Methods: Canine whole blood was collected in sodium heparin tubes from 29 beagle dogs and 23 mixed breed dogs. Whole blood (20 μL) was plated in 96-well plates (Costar 3598) with 180 μL of medium (RPMI 1640, Gibco #21870-076, with 1% heat inactivated fetal bovine serum, Gibco #10082-39, 292 μg/ml L-glutamine, Gibco #250030-081, 100 u/ml penicillin and 100 μg streptomycin per ml, Gibco #15140-122) containing vehicle control or test compound (0.001 to 10 μM), concanavalin A (ConA; 1 μg/ml, Sigma C5275), and canine interleukin-2 (IL-2; 50 ng/ml, R&D Systems 1815-CL/CF). Wells containing whole blood, medium with vehicle control and no ConA or IL-2 were used as background controls. Plates were incubated at 37° C. for 48 hours. Tritiated thymidine, 0.4 μCi/well (Perkin Elmer, Net027A-005MC), was added for 20 additional hours. Plates were frozen and then thawed, washed and filtered using a Brandel MLR-96 cell harvester and prewet filter mats (Wallac 1205-401, Perkin Elmer). Filters were dried at 60° C. for one hour (Precision 16EG convection oven) and placed into filter sample bags (Wallac 1205-411, Perkin Elmer) with 10 mL of scintillant (Wallac 1205-440, Perkin Elmer). Sealed filters were counted on a LKB Wallac 1205 Betaplate liquid scintillation counter. Data were collected via Gterm Betaplate program v1.1 (Wallac copyright 1989-1990) and transformed into percent inhibition, calculated using the following formula: […]

Test [9] relates to flea-associated pruritus and dermatitis in flea allergic dogs. Briefly: Reducing Flea-Associated Pruritus and Dermatitis Assay. It is filed as in vivo. The following applies: for pruritus as compared to placebo (seconds of pruritus per 4 hour recording): 10% level of significance. The protocol: Twenty eight male and female dogs of mixed breeds ranging in weight from 5-35 kg and greater than one year of age were infested with approximately 100 unfed adult cat fleas (Ctenocephalides felis) 14 days prior to the start of dosing and reinfested with 30 fleas per dog every 4 days throughout the study. Seven days before dosing, twenty four dogs were randomized into three different treatment groups, placebo, 0.5 mg/kg or 0.25 mg/kg of the compound of Example 1b, based on visual analog scale (VAS) scores for skin lesions. Treatments were given orally twice a day for 28 days, and pruritic behavior as well as erythema and skin lesions were was assessed during the study. Pruritic behavior was recorded by placing dogs into pens with video recording capability, and recording their activity over 4 hours. Pruritic activity was quantitated by determining how many seconds the dogs spent scratching. Skin lesions were recorded by image capture of abdominal, inguinal region and the severity ranked according to a visual analog scale (VAS).
Video captured elapsed time of pruritic behavior was analyzed using a mixed linear model for repeated measures. The model included fixed effects of treatment and day of study and the interaction of treatment and day of study. Random effects included block, the interaction of block and treatment and error. Baseline data for pruritic behavior (day −1) were used as covariate in the analysis of pruritic behavior. Least squares means were used as estimates of treatment means. Standard errors of least squares means were estimated and 90% confidence intervals were constructed. Geometric means were computed from the least squares means for log-transformed data. A priori contrasts were used to assess treatment. Treatment differences were assessed at the 10% level of significance (P≦0.10).

Recombinant JAK-3, sequence (P52333 781-1124): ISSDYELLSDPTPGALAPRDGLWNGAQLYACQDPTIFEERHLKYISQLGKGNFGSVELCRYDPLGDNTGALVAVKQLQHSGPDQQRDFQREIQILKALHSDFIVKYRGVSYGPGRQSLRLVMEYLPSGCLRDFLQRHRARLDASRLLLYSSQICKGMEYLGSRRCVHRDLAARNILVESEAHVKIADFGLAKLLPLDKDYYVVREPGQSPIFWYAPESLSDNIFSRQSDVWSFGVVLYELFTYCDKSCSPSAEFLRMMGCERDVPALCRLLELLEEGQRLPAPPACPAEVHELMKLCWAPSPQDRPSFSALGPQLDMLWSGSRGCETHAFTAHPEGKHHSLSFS
Procedure for Recombinant JAK-2: as §4, §5, §6
Procedure for Recombinant JAK-3: as §4, §5, §6

Regarding `CNS(=O)(=O)C[C@H]1CC[C@H](N(C)c2ncnc3[nH]ccc23)CC1` [Example 1a, N-methyl-1-{trans-4-[methyl(7H-pyrrolo[2,3-d]pyrimidin-4-yl)amino]cyclohexyl}methanesulfonamide], the IC50 (usually the concentration at which inhibition is half-maximal) in [1] is more than 1000 nM; in [2] (LPS + ConA), 357 nM; in [2] (SAC + IL-2) it was 38 nM; in test [3], 122 nM; in test [5] it was 687 nM; in [6], 64 nM. For the same compound, the IC50 in [7] (LPS + ConA) was 147 nM; in [7] (SAC + IL-2), 100 nM. In addition, the pIC50 (in general, the negative decadic logarithm of the IC50, by convention in mol/L) in test [4] was 8.02; on Recombinant JAK-3, 7.02; at Recombinant JAK-2, 7.76; in test [8] (whole blood from beagles), 7.18; in test [8] (whole blood from mixed breed dogs), 6.86.

For `CNS(=O)(=O)C[C@H]1CC[C@H](N(C)c2ncnc3[nH]ccc23)CC1.O=C(O)/C=C\C(=O)O` [Example 1b, N-methyl-1-{trans-4-[methyl(7H-pyrrolo[2,3-d]pyrimidin-4-yl)amino]cyclohexyl}methanesulfonamide maleic acid salt], the “pruritus as compared to placebo (seconds of pruritus per 4 hour recording)” value is “Significant reductions” in [9] (0.25 mg/kg orally twice a day, days 1, 4 and 12); “Significant reductions” in [9] (0.5 mg/kg orally twice a day, days 1 and 20). In addition, the “Lesions and erythema (VAS scores)” value in test [9] (0.5 mg/kg orally twice a day for 28 days, flea allergic dogs, Day 27 VAS) is on record as “significantly reduced”.

On to `CN(c1ncnc2[nH]ccc12)[C@H]1CC[C@H](CS(=O)(=O)NC2CCC2)CC1` [Example 2, N-cyclobutyl-1-{trans-4-[methyl(7H-pyrrolo[2,3-d]pyrimidin-4-yl)amino]cyclohexyl}methanesulfonamide], for which the pIC50 in test [4] is 7.35; at Recombinant JAK-3, 6.13; at Recombinant JAK-2, 7.00; in test [8] (whole blood from beagles) it was 6.39.

With `CCNS(=O)(=O)C[C@H]1CC[C@H](N(C)c2ncnc3[nH]ccc23)CC1` [Example 3, N-ethyl-1-{trans-4-[methyl(7H-pyrrolo[2,3-d]pyrimidin-4-yl)amino]cyclohexyl}methanesulfonamide], the pIC50 in [8] (whole blood from beagles) is 7.08.
